Experiment [1] in a line: Trained panel taste evaluation of lemon ice tea beverages. The format is in vivo, human. As to conditions: conclusion from Table 3, sclareolide 0.075 wt % in Base B. The method, then: Lemon ice tea beverages were prepared with the following ingredients in the amounts shown (grams). Base A is the full sucrose product (i.e. control sample). Base B is the same as base A except with 50% reduced sucrose and additional stevia sweetener in to provide the same level of sweetness.
The ingredients for each base were mixed together until fully dissolved.
The samples were then evaluated by a trained panel of 10 people. Tasting was performed by a blind and balanced presentation order of the samples with the intensity of acidity, bitterness, sweetness and liquorice all being assessed on a scale of 0 to 5 where 0 represents not perceptible and 5 represents very intense.
The scores were averaged and an analysis of variance was performed to identify significant differences between the samples.

The nature of experiment [2]: Panel evaluation of a carbonated lemon beverage formulation. The format is in vivo, human. To be noted: carbonated lemon beverage with stevia. The method, then: A lemon beverage syrup base was prepared by mixing together the following ingredients:
To a 1 litre portion of the syrup base was added 6 g of sclareolide, ex Avoca (1% w/v ethanolic solution). The mixture was then dilute with 5 litres of carbonated water to provide sclareolide at 10 ppm. This is referred to as sample 6.
To another 1 litre portion of the syrup base was added 0.12 g of sclareolide, ex Avoca (1% w/v ethanolic solution). The mixture was then dilute with 5 litres of carbonated water to provide sclareolide at 0.2 ppm. This is referred to as sample 7.
A third portion of the syrup base was used as is (i.e. with no sclareolide present) and was diluted with 5 litres of carbonated water. This is referred to as sample 8.
30 panellists were then asked to evaluate (i) sample 6 and sample 8 and (ii) sample 7 and sample 8 in a balanced, randomized blind test for Overall Flavor, Sweetness, Tartness/Acidity, Lingering Aftertaste, Metallic/Bitterness, Off-note aftertaste and Liquorice Flavor on an 11-point continuous intensity scale where 0=Imperceptible and 10=Extremely Pronounced.

The source of these data is patent US20130115356A1, “SWEETENER COMPOSITION” (FIRMENICH SA, priority 2010, published 2013).

Structures are written as SMILES.

With `CC1(C)CCC[C@]2(C)[C@H]3CC(=O)O[C@]3(C)CC[C@@H]12` [sclareolide], in experiment [1], the “effect on the acidity, bitterness or sweetness of the product” value is on record as “does not appear to have a significant effect” and the “effect on the liquorice taste of the product” value is listed as “significantly reduces the liquorice taste”. Besides, in experiment [2] (sclareolide at 0.2 ppm), the masking effect entry is reported as “little or no masking effect observed”. Besides, the masking liquorice notes entry in experiment [2] (sclareolide at 10 ppm) is “not achieved”.
